From paper PMC6814738, “Bacterial MgrB peptide activates chemoreceptor Fpr3 in mouse accessory olfactory system and drives avoidance behaviour” (Nature Communications, 2019)
Values joined by “and” are separate entries in the source; they are usually repeats but may differ in a detail not shown here. Identical values can stand only once.

Tests used:
mouse Fpr3 (Fpr-rs1) = biological target: T1, mouse Fpr3 (Fpr-rs1) (Mus musculus, UniProt O08790); test: Heterologous expression / high-throughput Ca2+ imaging agonist screen and sequence selectivity of Fpr3 (Fig. 1a, 2c-e, 2g, 2i); type: cell-based; conditions: mean of n = 3 experiments in triplicate (n = 5 for f-MKKFRW), Fpr3 + Gα16 HEK293T, Fluo-4/AM, FLIPR, buffer C1 pH 7.2, mock 0.059-0.060
T1 construct: expressed in transfected cells; host or cells: HEK293T (DSMZ # ACC-635), transient transfection with jetPEI
T1 sequence (O08790 1-351): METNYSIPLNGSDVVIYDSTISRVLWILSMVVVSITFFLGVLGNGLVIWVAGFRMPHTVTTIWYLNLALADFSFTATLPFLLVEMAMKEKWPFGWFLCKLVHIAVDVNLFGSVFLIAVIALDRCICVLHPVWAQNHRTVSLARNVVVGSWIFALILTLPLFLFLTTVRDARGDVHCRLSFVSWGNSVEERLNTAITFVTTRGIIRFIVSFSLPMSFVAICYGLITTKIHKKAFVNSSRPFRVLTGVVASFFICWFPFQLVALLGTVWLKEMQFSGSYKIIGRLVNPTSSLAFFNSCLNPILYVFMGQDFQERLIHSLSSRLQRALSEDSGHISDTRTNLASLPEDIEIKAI
Experimental: An Fpr3 gene subcloned from genomic DNA of C57BL/6J mice into pcDNA3.1 (Invitrogen) was used in heterologous experiments[21],[80]. HEK293T (DSMZ # ACC-635) cells were seeded at 20–30% confluence on poly-D-lysine-coated (10 µg/ml in PBS) black 96-well µCLEAR-Plates (Greiner Bio-One). Cells were transfected 24 h later using jetPEI™ (Polyplus-transfection SA) according to the manufacturer’s protocol for 96-well transfections. For Ca^2+ imaging experiments, 0.125 µg of DNA plasmid encoding Fpr3 were cotransfected with equal amounts of a plasmid encoding Gα16, a promiscuous G protein α-subunit. Ca^2+ signals to agonist stimulation were recorded 48 h post transfection using the Ca^2+ indicator dye Fluo-4/AM (Molecular Probes) and a fluorescence imaging plate reader (FLIPR) system (Molecular Devices). Cotransfection of a plasmid encoding Gα16 with an empty vector used to subclone Fpr3 gave no agonist-evoked Ca^2+ responses.
We used custom-made peptides with a length of 6–21 amino acids to screen for agonists. Sequences of fMet peptides were designed according to motifs present at the N-termini of 15,125 specific bacterial proteins as annotated in UniProt. Peptides were chemically synthesised, purified, and verified by mass spectroscopy (MALDI-TOF) by commercial suppliers. Purity of all peptides was >95%. Source, sequence and purity of each peptide are listed in Supplementary Data 1. Lyophilised peptides were routinely dissolved in the Ca^2+ imaging assay buffer C1 (130 mM NaCl, 10 mM HEPES, 5 mM KCl, 2 mM CaCl2, 5 mM glucose, pH 7.2) as 0.2–1 mM stock solutions and kept in small aliquots at −20 °C until use. […] The sequences of these peptides exist in proteins from the following bacterial strains[21]: Psychromonas ingrahamii that belongs to a marine ice water microbial community, Desulfotomaculum reducens that is found in deep freshwater lakes, and Pseudomonas grimontii, a plant pathogen. As mice are unlikely to encounter these strains in their natural habitat, these findings are probably not of biological relevance.

male mice = test: Behavioural avoidance test, FEU vs. FEU supplemented with peptide (Fig. 8, Supplementary Fig. 4); type: in vivo, mouse; conditions: Fig. 8c, B6 mice
Experimental: These assays were adapted from behavioural procedures described previously[14],[60]. We tested avoidance by giving adult male mice (8–14 week old) of various genotypes a choice to freely investigate two types of chemical stimuli: FEU vs. FEU supplemented with a peptide. Mice were sexually naïve and not exposed to the test stimuli prior to the testing day. Mice were habituated for three days (40 min each day) to clean filter papers (2.5 cm diameter), each deposited in a sterile plastic culture dish and placed in opposite corners of the test cage (30 × 12 cm). After the third habituation period, the test subject was transferred into a new cage containing fresh filter papers/dishes with either of the two test stimuli. One filter paper was impregnated with 45 µl of fresh urine pooled from two sexually naïve female B6 mice (8–16 weeks old) in oestrus (FEU, female oestrous urine) and 5 µl physiological solution containing (in mM): NaCl, 130; KCl, 5; Na-Hepes, 10; CaCl2, 2; glucose, 10; pH = 7.4. For testing the effects of specific peptides, the second filter paper was impregnated with FEU supplemented with a given peptide (100 or 50 µM final concentration, dissolved in physiological solution). Direct physical contact was allowed. Behaviour was recorded for 10 min from the top of the cage. Mice were exposed only once to a given peptide solution, and were exposed to only one peptide stimulus per day. Stimuli were presented in randomised order. […] This investigative behaviour was quantified as the time spent in close contact with each filter paper, scored manually by an observer blind to the experimental conditions using Behavioural Observation Research Interactive Software (BORIS)[85]. Contact time was measured as the time during which the nose crossed the border of a petri dish containing impregnated filter paper. An avoidance index was calculated as (TP — aTU)/(aTP + aTU), with TP as the time an individual mouse investigated a FEU-peptide mixture, aTP as the average time of all tested mice investigating this stimulus and aTU as the average time of all mice investigating FEU without added peptide. Negative values represent avoidance and positive values represent attraction. For analysing investigation of sick conspecifics, B6 mice were injected either with LPS or PBS as described above. In total, 4 h post injection, these mice were anaesthetised with 165 mg/kg ketamine (Pharmacia GmbH, Berlin, Germany) and 11 mg/kg xylazine (Bayer Health Care, Leverkusen, Germany) and then used in behavioural tests.

Row | Substance | Ca2+ response, mean (mouse Fpr3 (Fpr-rs1); 3 µM) | Ca2+ response, mean (mouse Fpr3 (Fpr-rs1); 30 µM) | Preference Index (male mice; individual values) | Preference Index (male mice; mean, n = 11 f-MKKFRW, 11 MKKFRW, 10 f-MGFFIS, 10 f-MEQQNK, FEU control -0.002)
1 | f-MAMKKL [synthesized fMet peptide] | 0.058 ∆F/F | 0.059 ∆F/F | – | –
2 | f-MAQDIISTI [synthesized fMet peptide] | 0.079 ∆F/F | 0.075 ∆F/F | – | –
3 | f-MAYPFQ [synthesized fMet peptide] | 0.059 ∆F/F | 0.061 ∆F/F | – | –
4 | f-MEFVAK [synthesized fMet peptide] | 0.051 ∆F/F | 0.076 ∆F/F | – | –
5 | f-MEFVAKLFK [synthesized fMet peptide] | 0.071 ∆F/F | 0.062 ∆F/F | – | –
6 | f-MEQQNK [synthesized fMet peptide] | 0.047 ∆F/F | 0.050 ∆F/F | -0.06064 and -0.05774 and -0.1328 and -0.09632 and 0.7296 and -0.0445 and 0.1064 and -0.1977 and 0.2779 and -0.1553 | 0.0369
7 | f-MFIYYCK [synthesized fMet peptide] | 0.053 ∆F/F | 0.042 ∆F/F | – | –
8 | f-MINKKI [synthesized fMet peptide] | 0.058 ∆F/F | 0.045 ∆F/F | – | –
9 | f-MKFCTA [synthesized fMet peptide] | 0.034 ∆F/F | 0.080 ∆F/F | – | –
10 | f-MKKFLL [synthesized fMet peptide] | 0.052 ∆F/F | 0.050 ∆F/F | – | –
11 | f-MKKFNI [synthesized fMet peptide] | 0.053 ∆F/F | 0.044 ∆F/F | – | –
12 | f-MKKFYS [synthesized fMet peptide] | 0.058 ∆F/F | 0.056 ∆F/F | – | –
13 | f-MKKHRW [synthesized fMet peptide] | 0.061 ∆F/F | 0.054 ∆F/F | – | –
14 | f-MKKIML [synthesized fMet peptide] | 0.050 ∆F/F | 0.055 ∆F/F | – | –
15 | f-MKKISKFLP [synthesized fMet peptide] | 0.055 ∆F/F | 0.072 ∆F/F | – | –
16 | f-MKKLLNKIV [synthesized fMet peptide] | 0.056 ∆F/F | 0.054 ∆F/F | – | –
17 | f-MKKNLV [synthesized fMet peptide] | 0.052 ∆F/F | 0.053 ∆F/F | – | –
18 | f-MKKTLSLKN [synthesized fMet peptide] | 0.068 ∆F/F | 0.058 ∆F/F | – | –
19 | f-MKKWRW [synthesized fMet peptide] | 0.056 ∆F/F | 0.063 ∆F/F | – | –
20 | f-MKKYKRLLL [synthesized fMet peptide] | 0.074 ∆F/F | 0.065 ∆F/F | – | –

Row | Substance | Ca2+ response, mean (mouse Fpr3 (Fpr-rs1); 3 µM) | Ca2+ response, mean (mouse Fpr3 (Fpr-rs1); 30 µM) | Preference Index (male mice; individual values) | Preference Index (male mice; mean, n = 11 f-MKKFRW, 11 MKKFRW, 10 f-MGFFIS, 10 f-MEQQNK, FEU control -0.002)
21 | f-MKNFKG [synthesized fMet peptide, bacterial signal peptide fragment] | 0.065 ∆F/F | 0.052 ∆F/F | – | –
22 | f-MKTSIR [synthesized fMet peptide] | 0.055 ∆F/F | 0.049 ∆F/F | – | –
23 | f-MLFKYL [synthesized fMet peptide] | 0.053 ∆F/F | 0.056 ∆F/F | – | –
24 | f-MLFKYS [synthesized fMet peptide] | 0.054 ∆F/F | 0.048 ∆F/F | – | –
25 | f-MLKIIL [synthesized fMet peptide] | 0.057 ∆F/F | 0.057 ∆F/F | – | –
26 | f-MLNKKKRGN [synthesized fMet peptide] | 0.056 ∆F/F | 0.058 ∆F/F | – | –
27 | f-MMKMEG [synthesized fMet peptide] | 0.048 ∆F/F | 0.040 ∆F/F | – | –
28 | f-MNIFTT [synthesized fMet peptide] | 0.059 ∆F/F | 0.065 ∆F/F | – | –
29 | f-MNKKLL [f-MNKLL, synthesized fMet peptide] | 0.038 ∆F/F | 0.039 ∆F/F | – | –
30 | f-MNPITL [synthesized fMet peptide] | 0.053 ∆F/F | 0.062 ∆F/F | – | –
31 | f-MPKLNR [synthesized fMet peptide] | 0.048 ∆F/F | 0.033 ∆F/F | – | –
32 | f-MPQLDT [synthesized fMet peptide] | 0.060 ∆F/F | 0.058 ∆F/F | – | –
33 | f-MPSTFF [synthesized fMet peptide] | 0.063 ∆F/F | 0.065 ∆F/F | – | –
34 | f-MTHQTH [synthesized fMet peptide] | 0.064 ∆F/F | 0.077 ∆F/F | – | –
35 | f-MTNKIS [synthesized fMet peptide] | 0.052 ∆F/F | 0.049 ∆F/F | – | –
36 | f-MTNMRK [synthesized fMet peptide] | 0.089 ∆F/F | 0.060 ∆F/F | – | –
37 | f-MVKIIF [synthesized fMet peptide] | 0.045 ∆F/F | 0.054 ∆F/F | – | –
38 | f-MVMKFK [synthesized fMet peptide] | 0.053 ∆F/F | 0.050 ∆F/F | – | –
39 | f-MVPISI [synthesized fMet peptide] | 0.048 ∆F/F | 0.044 ∆F/F | – | –
